The values that follow come from patent US20110321190A1, “METHOD OF POSITIVE PLANT SELECTION USING SORBITOL DEHYDROGENASE” (Metabolix, Inc., priority 2009, published 2011).

Entries after “also recorded” stand apart in the source; their conditions may differ.

Data set [1] has as its system Arabidopsis thaliana leaf and root explants. The data set is described as follows: Calli growth of Arabidopsis thaliana leaf and root explants in the presence of different carbon sources. The format is cell-based. Conditions: sole carbon source as in Example 1; 4 weeks dark incubation at 25° C. Here is the method: Growth of cultures of Arabidopsis thaliana, a model dicot species, were also examined to determine if they were able to grow in the presence of sorbitol as a sole carbon source. Leaf and root explants were excised from sterile seedlings of Arabidopsis and were plated on medium containing maltose, fructose, or sorbitol, or no carbon supplement as described in Example 1.

For data set [2], the system named is switchgrass (Panicum virgatum L. cv. 'Alamo') callus cultures. Put plainly: Growth of switchgrass callus cultures in the presence of different carbon sources. It counts as cell-based. As to conditions: wild-type callus; sole carbon source: maltose 83.3 mM, fructose 111 mM, sorbitol 41.2 mM; 4 weeks dark incubation at 28° C. The text has this: The in vitro response of various plants grown on medium supplemented with different sugar sources was investigated. For these purposes, switchgrass (Panicum virgatum L. cv. ‘Alamo’) was chosen as a representative monocot species. Highly embryogenic callus cultures of switchgrass were initiated from mature caryopses according to established procedures (Denchev, P. D. and B. V. Conger, Crop Sci., 34: 1623-1627 (1994)) and transferred to callus multiplication media [media consists of MS basal salts (product#MS002, Caisson Laboratories, North Logan, Utah, USA), 6-benzylaminopurine (BAP, […]), 2,4-dichlorophenoxyacetic acid (2,4-D, […]), and agar (8 g/L agar), pH 5.6]. The media was supplemented with carbon sources as indicated in the following concentrations: maltose (83.3 mM), fructose (111 mM), sorbitol (41.2 mM), or no carbon source. After 4 weeks of dark incubation at 28° C., the callus multiplication ability in the presence of various carbon supplements or no carbon supplement was visually examined.

Another data set deals with tobacco leaf pieces. Put plainly: Callus induction and shoot regeneration from tobacco leaves on different sugars as sole carbon source. The format is cell-based. Conditions: sole carbon source: sorbitol 16 g/L, fructose 15.8 g/L; 4 weeks in tissue culture. Here is the method: To test whether sorbitol dehydrogenase can be used as a positive selection marker in tobacco, pieces of tobacco leaves were tested on media containing different sugars as a sole carbon source.
Sterile grown tobacco leaves were cut into pieces of approximately 0.5-1 cm^2. Leaf pieces were transferred onto MS media containing minimal organics (MSP002 from Caisson Laboratories, North Logan, Utah, USA), 1 mg/L 6-BAP (6-benzylaminopurine) in 1N NaOH, 100 ug/L NAA (α-naphtahalene acetic acid), and the following carbon sources: no sugar; sorbitol, (16 g/L); fructose, (15.8 g/L); sucrose (30 g/L). Explants were maintained in tissue culture for 4 weeks with the following light cycle: 16 hrs in the light at 23° C.; 8 hrs in the dark at 20° C.; relative humidity approximately 45%.

A further data set deals with tomato cells. Conditions: examples of the cited Trulson patents; cited from earlier work.
Data set [3] concerns switchgrass embryogenic callus cultures. The data set is described as follows: Agrobacterium-mediated transformation of switchgrass with pMBXS323 and selection on sorbitol as sole carbon source. It counts as cell-based. Conditions: medium with sorbitol as sole carbon source; 4-6 wks in the dark at 28° C. The protocol: Agrobacterium-mediated transformation of switchgrass was performed as previously described (Somleva et al., 2002; Somleva, 2006). Highly embryogenic callus cultures were co-cultured with Agrobacterium tumifaciens strain AGL1 (Lazo et al., 1991) harboring pMBXS323 (FIG. 2) for three days in the dark at 28° C. The Agrobacterium treated cultures were incubated on a medium without selection for three to five days and then were transferred to medium containing sorbitol as the sole carbon source. […] These portions were carefully separated from the main callus and transferred to fresh selection medium for further callus proliferation. Upon transfer to regeneration medium containing sorbitol as the sole carbon source, these calli sectors developed green pigmentation within 3-5 days and eventually formed green adventitious shoots and emblings (somatic embryo derived plantlets) (FIGS. 3a-b).

Consider `O=C(CO)[C@@H](O)[C@H](O)[C@H](O)CO` [fructose], for which, in data set [1], the “callus growth of root and leaf cultures” value is “considerable callus growth”. Besides, in data set [2], the “callus multiplication ability (visually examined)” value (“callus multiplication ability” below) was “able to proliferate normally and displayed considerable callus growth”. Moreover, in the data set on tobacco leaf pieces, the “callus generation / induction” value is recorded as “Callus induction” and the shoot regeneration entry is on record as “shoot regeneration”.

Consider `OC[C@H]1O[C@@H](O[C@H]2[C@H](O)[C@@H](O)C(O)O[C@@H]2CO)[C@H](O)[C@@H](O)[C@H]1O` (stereo partly shown) [lactose], for which the “growth of tomato cells on the carbon source” value (“growth of tomato cells” for short) with tomato cells is listed as “do not grow”.

For `OC[C@H]1O[C@H](O[C@H]2[C@H](O)[C@@H](O)[C@H](O)O[C@@H]2CO)[C@H](O)[C@@H](O)[C@@H]1O` [maltose], the “callus growth of root and leaf cultures” value in data set [1] is reported as “considerable callus growth”. Besides, in data set [2], the “callus multiplication ability” value is “able to proliferate normally and displayed considerable callus growth”.

Regarding `OC[C@@H](O)[C@@H](O)[C@H](O)[C@H](O)CO` [mannitol], the “growth of tomato cells” value with tomato cells is on record as “do not grow”.

For the molecule `OCc1ccccc1O[C@@H]1O[C@H](CO)[C@@H](O)[C@H](O)[C@H]1O` [salicin], the “growth of tomato cells” value in the data set with tomato cells is “do not grow”.

Regarding `OC[C@@H](O)[C@@H](O)[C@H](O)[C@@H](O)CO` [sorbitol], the “callus growth of root and leaf cultures” value in data set [1] is reported as “little to no growth”. Besides, in the data set with tomato cells, the “growth of tomato cells” value is “do not grow”. Moreover, the “callus multiplication ability” value in data set [2] is reported as “remained dormant with minimal or no incremental growth; also recorded: reduced growth”. Besides, in the data set on tobacco leaf pieces, the “callus generation / induction” value is recorded as “Inhibited callus generation” and the shoot regeneration result is on record as “inhibited shoot regeneration”.

Consider `OC[C@H]1O[C@H](O[C@H]2O[C@H](CO)[C@@H](O)[C@H](O)[C@H]2O)[C@H](O)[C@@H](O)[C@@H]1O` [trehalose], for which the “growth of tomato cells” value with tomato cells is “do not grow”.

For the molecule “pMBXS323: pCAMBIA3300-derived plant transformation plasmid with CaMV35S promoter, hsp70 intron and sdh gene from Pseudomonas sp. KS-E1806”, the “calli clumps showing formation of new growth” value in data set [3] is given as 30-50%.
